According to paper PMC11650849, “Brain endothelial permeability, transport, and flow assessed over 10 orders of magnitude using the in situ brain perfusion technique” (Fluids and Barriers of the CNS, 2024):
Where two headings read alike, the source gives them in different places.

Legend:
[1] = rat in vivo measurements; cited from earlier work
[2] = for Brain Kin: calculated at brain blood flow […] and rat serum fu; for Extraction (unbound) / Brain vascular extraction (total): calculated at brain blood flow […]; for Extraction (unbound): free drug; for Brain vascular extraction (total): with rat serum fu; for Maximal flow—90% extraction, PcS/2.3: pH 7.4
[3] = ref Hansch et al. [123], Avdeef [46] or other sources, cited from earlier work; for Log Poct: octanol partition coefficient
[4] = In situ rat brain perfusion (brain uptake Kin, extraction E, BBB PS); details: for Log Pc: Pc in cm/s; for Log Po: Po in cm/s; for Log PoS: PoS in mL/s/g; for Pc / Po: S assumed 100 cm^2/g; for PcS: cerebral cortex, S = physiological saline, AB = artificial blood
[5] = rat in vivo measurements; cited from earlier work; remark: listed apart in the source
[6] = Neutral fraction at pH 7.4 calculated from pKa; format: physicochemical; details: neutral fraction at perfusion fluid pH 7.40, calculated from pKa
[7] = rat, in vivo
[8] = rat
[9] = intrinsic PS of neutral solute, PoS = PcS/fn, flow 0.1–[…]

Compound | Brain Vu,br [1] [mL/g] | Brain Kin [2] [mL/s/g] | Extraction (unbound) [2] [%] | Brain vascular extraction (total) [2] [%] | Log Poct [3] | Log Doct pH=7.4 [3] | fu,.p [5] | fn (%) [6] [%] | Log Pc ([7]; pH 7.4) | Log PoS ([7]; pH 7.4) | Pc ([7]; pH 7.4) [×10⁻⁶ cm/s] | PcS ([7]; pH 7.4) [mL/s/g] | PoS ([7]; pH 7.4) [mL/s/g] | Log Po ([7]; pH 7.4) | Po ([7]; pH 7.4) [cm/s] | half-life ([8]; brain) [min] | also measured
CC(O)CO (stereo not shown) [1,2-Propanediol] | 1.04 | 0.0112 | 8.6 | 8.6 | −1.04 | −1.04 | 1.00 | 100 |  |  |  |  |  |  |  |  | Log Pc [4]: −4.67; Log Po [4]: −4.67; Log PoS [4]: −2.67; Pc [4]: 21.6 ×10⁻⁶ cm/s; Po [4]: 21.6 ×10⁻⁶ cm/s; PoS ([4]; brain vascular intrinsic PoS): 0.00216 mL/s/g; PcS ([4]; flow 0.1–[…]): 0.0022 mL/s/g; PoS [4, 9]: 0.00216 mL/s/g
OCCCCCCO [1,6-Hexanediol] | 1.27 | 0.0182 | 96.3 | 75.9 | 0.83 | 0.83 | 0.9 | 100 | −3.42 | −1.42 | 379 | 0.038 | 0.0379 | −3.42 | 0.000379 | 0.72 | 
Cc1c(N(C)C)c(=O)n(-c2ccccc2)n1C [Aminopyrine] | 1.67 | 0.0201 | 89.8 | 83.9 |  |  | 0.80 | 99.0 |  |  |  |  |  |  |  | 0.76 | 
Cn1c(=O)c2c(ncn2C)n(C)c1=O [Caffeine] | 1.28 | 0.0152 | 64.7 | 63.2 |  |  |  | 100 |  |  |  |  |  |  |  | 0.94 | 
OC[C@@H](O)[C@@H](O)CO [Erythritol] | 0.50 | 9.27e-05 | 0.15 | 0.15 | −2.29 | −2.29 | 1.00 | 100 | −6.49 | −4.49 | 0.324 | 3.2e-05 | 3.24e-05 | −6.49 | 3.24e-07 | 160 | 
CNCCC(Oc1ccc(C(F)(F)F)cc1)c1ccccc1 (stereo not shown) [Fluoxetine] | 250 | 0.0105 | 100 | 21.3 | 4.50 |  | 0.028 | 0.27 |  |  |  |  |  |  |  | 15.8 | 
CC(C(=O)O)c1ccc(-c2ccccc2)c(F)c1 (stereo not shown) [Flurbiprofen] | 7.76 | 0.000144 | 61.6 | 0.60 | 3.99 | 0.91 | 6.3E−03 | 0.06 | −3.64 | 1.58 | 230 | 0.023 | 38.2 | −0.42 | 0.38 | 3.9 | 
OCC(O)CO [Glycerol] | 1.04 | 1.7e-06 | 0.34 | 0.34 | −1.76 | −1.76 | 1.00 | 100 | −6.08 | −4.08 | 0.829 | 8.3e-05 | 8.29e-05 | −6.08 | 8.29e-07 | 145 | 
COc1ccc2c(c1)c(CC(=O)O)c(C)n2C(=O)c1ccc(Cl)cc1 [Indomethacin] | 13.0 | 4.37e-05 | 27.3 | 0.18 | 3.51 | 0.68 | 5.7E−03 | 0.05 | −4.12 |  | 76.6 | 0.0077 |  | −0.84 | 0.15 | 19.6 | 
Cc1c(I)c(=O)n(-c2ccccc2)n1C [Iodoantipyrine] | 2 | 0.0231 | 99.8 | 96.1 | 1.27 | 1.27 | 0.50 | 100 | −2.81 | −0.81 | 1560 | 0.16 | 0.16 | −2.81 | 0.00156 | 0.5 | Peak flow rate for 90% E ([2]; protein-free physiologic saline pH 7.4): 4.1 mL/min/g; Maximal flow—90% extraction, PcS/2.3 ([2]; protein-free saline): 0.068 mL/s/g; BBB PcS ([7]; pH 7.4): 0.156 mL/s/g; Percentage printed beside the uptake curves (measure not given) ([7]; pH 7.4): 79%
O=C[C@@H](O)[C@H](O)[C@@H](O)[C@@H](O)CO [L-Glucose] | 0.13 |  |  |  | −3.18 | −3.18 | 1.00 | 100 |  |  |  |  |  |  |  |  | Pc [7]: 0.125 ×10⁻⁶ cm/s; Po [7]: 1.25e-07 cm/s; Log Pc [4]: −6.90; Log Po [4]: −6.90; Log PoS [4]: −4.90; PcS ([4]; flow 0.1–[…]): 1.25e-05 mL/s/g; PoS [4, 9]: 1.25e-05 mL/s/g
O=C1Nc2ccc(Cl)cc2C(c2ccccc2Cl)=NC1O (stereo not shown) [Lorazepam] | 15.87 |  |  |  |  |  | 0.16 | 100 |  |  |  |  |  |  |  |  | Maximal flow—90% extraction, PcS/2.3 [2]: 0.13 mL/s/g; Log Pc [4]: −2.52; Log Po [4]: −2.52; Log PoS [4]: −0.52; Pc [4]: 3000 ×10⁻⁶ cm/s; Po [4]: 3000 ×10⁻⁶ cm/s; PcS ([4]; flow 0.1–[…]): 0.30 mL/s/g; PoS [4, 9]: 0.30 mL/s/g; half-life [8]: 1.39 min
OC[C@@H](O)[C@@H](O)[C@H](O)[C@H](O)CO [Mannitol] | 0.08 | 8.8e-06 | 3.67E-04 | 3.67E-04 | −3.10 | −3.10 | 1.00 | 100 | −7.06 | −5.06 | 0.088 | 8.8e-06 | 8.8e-06 | −7.06 | 8.8e-08 | 109 | 
CNC(N)=O [Methylurea] | 1.04 | 0.000563 | 0.79 | 0.79 | −1.40 | −1.40 | 1.00 | 100 |  |  |  |  |  |  |  |  | Log Pc [4]: −5.72; Log Po [4]: −5.72; Log PoS [4]: −3.72; Pc [4]: 1.91 ×10⁻⁶ cm/s; Po [4]: 1.91 ×10⁻⁶ cm/s; PoS ([4]; brain vascular intrinsic PoS): 0.000191 mL/s/g; PcS ([4]; flow 0.1–[…]): 0.00019 mL/s/g; PoS [4, 9]: 0.000191 mL/s/g
CCCCNS(=O)(=O)c1ccccc1 [N-butyl-benzene sulfonamide] | 10 |  |  |  | 2.20 | 2.20 | 0.30 | 100 |  |  |  |  |  |  |  |  | Maximal flow—90% extraction, PcS/2.3 [2]: 0.17 mL/s/g; Log Pc [4]: −2.42; Log Po [4]: −2.42; Log PoS [4]: −0.42; Pc [4]: 3800 ×10⁻⁶ cm/s; Po [4]: 3800 ×10⁻⁶ cm/s; PoS ([4]; brain vascular intrinsic PoS): 0.38 mL/s/g; PcS ([4]; flow 0.1–[…]): 0.38 mL/s/g; PoS [4, 9]: 0.38 mL/s/g
CC(=O)[C@H]1CC[C@H]2[C@@H]3CCC4=CC(=O)CC[C@]4(C)[C@H]3CC[C@]12C [Progesterone] | 28.6 |  |  |  | 3.48 | 3.48 | 0.03 | 100 |  |  |  |  |  |  |  | 0.42 | 
CC(C)NCC(O)COc1cccc2ccccc12 (stereo not shown) [Propranolol] | 27.8 | 0.00806 | 98.3 | 30.5 |  |  | 0.09 | 0.74 |  |  |  |  |  |  |  | 3.93 | 
OC[C@H]1O[C@@](CO)(O[C@H]2O[C@H](CO)[C@@H](O)[C@H](O)[C@H]2O)[C@@H](O)[C@@H]1O [Sucrose] | 0.05 |  | 2.00E-04 | 2.00E-04 | −3.57 | −3.57 | 1.00 | 100 |  |  |  |  |  |  |  | 120 | 
